Experimental data reported in patent publication US6824770B1, “Adenovirus gene expression system” (Cornell Research Foundation, Inc., priority 1993, dated 2004).
Where two headings read alike, the source gives them in different places.

Assays:
TRH-R [1] = target: T1, TRH-R (Mus musculus, UniProt P21761); type: cell-based
T1 construct: expressed in transfected cells; host or cells: Infected with AdCMVmTRHR or transfected with pAdCMVmTRHR: HeLa, GHY, AtT-20, C6, CV1, COS-1 and KB cells

mouse TRH-R = target: T2, mouse TRH-R (Mus musculus, UniProt P21761); assay: [3H]methylTRH binding to intact AdCMVmTRHR-infected cells; conditions: TRH-Rs expressed on cells after infection with AdCMVmTRHR; data not shown; read-out: dissociation constant for methylTRH binding
T2 construct: expressed in transfected cells; host or cells: Infected with AdCMVmTRHR or transfected with pAdCMVmTRHR: HeLa, GHY, AtT-20, C6, CV1, COS-1 and KB cells
T2 sequence (P21761 1-393): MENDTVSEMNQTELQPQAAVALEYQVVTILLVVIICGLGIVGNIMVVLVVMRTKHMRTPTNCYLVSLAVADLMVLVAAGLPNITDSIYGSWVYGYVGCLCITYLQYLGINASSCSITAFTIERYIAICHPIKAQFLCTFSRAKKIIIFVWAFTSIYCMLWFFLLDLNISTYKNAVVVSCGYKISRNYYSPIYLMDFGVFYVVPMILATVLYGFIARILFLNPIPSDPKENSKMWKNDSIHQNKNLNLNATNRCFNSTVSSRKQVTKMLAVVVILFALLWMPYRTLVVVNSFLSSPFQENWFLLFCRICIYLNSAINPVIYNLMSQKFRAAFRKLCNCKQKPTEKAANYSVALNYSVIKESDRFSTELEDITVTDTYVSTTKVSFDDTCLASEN
Procedure: (§1) Cells were seeded in wells (3.8 cm^2) pretreated with poly-L-lysine and were incubated in medium supplemented with serum in a humidified atmosphere of 5% CO2. After a minimum of 4 hours, the medium was aspirated and replaced with 0.3 ml of medium without serum, AdCMVmTRHR (300 particles/cell) was added and the cells were incubated at 37° C. After 1 hour, 0.7 to 1.0 ml medium containing serum was added and the incubation continued for 3 to 72 hours. Infection with AdCMVmTRHR was performed in an identical manner for all cell types except that the incubation mediums were different. The mediums were: Dulbecco's modified Eagle's medium supplemented with 5% Nu-Serum for human cervical cancer HeLa cells, monkey kidney Cos-1 and CV-1 cells, and rat glioma C6 cells; Ham's F-10 medium with 15% horse serum and 2.5% fetal bovine serum for rat pituitary tumor GHY cells; Delbecco's modified Eagle's medium with 10% Nu-Serum for mouse pituitary tumor AtT-20 cells; and modified Eagle's medium with 10% fetal bovine serum for human epidermoid KB cells. None of these cell lines express TRH-Rs. Cells were studied 16 to 24 hours after infection with 300 AdCMVmTRHR particles per cell which yielded maximal TRH-R expression. […]

TRH-R [2] = target: T1, TRH-R; assay: methylTRH stimulation of [3H]IP formation (TRH response); type: cell-based; conditions: uninfected HeLa, GHY, AtT, C6, CV1 and COS-1 cells
Procedure: as §1, with “TRH-Rs.” for “TRH-Rs. Cells were studied 16 to 24 hours after infection with 300 AdCMVmTRHR particles per cell which yielded maximal TRH-R expression.”
Infected or transfected cells were labelled for 24 hours with [^3H]myo-inositol, stimulated with TRH or methylTRH in a balanced salt solution containing 10 mM LiCl and [^3H]IPs were measured as described by Imai et al., 1987, Methods. […]

TRH-R [3] = target: T1, TRH-R; assay: Internalization of TRH-Rs (acid-resistant specifically bound [3H]methylTRH); type: cell-based; conditions: methylTRH-bound receptors
Procedure: Cells were seeded in wells (3.8 cm^2) pretreated with poly-L-lysine and were incubated in medium supplemented with serum in a humidified atmosphere of 5% CO2. After a minimum of 4 hours, the medium was aspirated and replaced with 0.3 ml of medium without serum, AdCMVmTRHR (300 particles/cell) was added and the cells were incubated at 37° C. After 1 hour, 0.7 to 1.0 ml medium containing serum was added and the incubation continued for 3 to 72 hours. Infection with AdCMVmTRHR was performed in an identical manner for all cell types except that the incubation mediums were different. The mediums were: Dulbecco's modified Eagle's medium supplemented with 5% Nu-Serum for human cervical cancer HeLa cells, monkey kidney Cos-1 and CV-1 cells, and rat glioma C6 cells; Ham's F-10 medium with 15% horse serum and 2.5% fetal bovine serum for rat pituitary tumor GHY cells; Delbecco's modified Eagle's medium with 10% Nu-Serum for mouse pituitary tumor AtT-20 cells; and modified Eagle's medium with 10% fetal bovine serum for human epidermoid KB cells. None of these cell lines express TRH-Rs. Cells were studied 16 to 24 hours after infection with 300 AdCMVmTRHR particles per cell which yielded maximal TRH-R expression.
Internalization was measured as specifically bound [^3H]methylTRH that was resistant to acid wash (Hinkle et al., 1982, J.Biol. Chem., vol. 257, pp. 5462-5470; and Nussenzveig et al., 1993, J.Biol. Chem., vol. 268, pp. 2389-2392, which disclosures are hereby incorporated by reference). Specific acid resistant binding was calculated by subtracting the nonspecifically bound from the [^3H]methylTRH remaining after acid/salt elution.

## CCCCCCCCCCCCCC(=O)O[C@@H]1[C@@H](C)[C@@]2(O)[C@@H](C=C(CO)C[C@]3(O)C(=O)C(C)=C[C@@H]23)[C@@H]2C(C)(C)[C@]12OC(C)=O [PMA]
TRH-R [1]; AdCMVmTRHR-infected AtT-20 cells, 0.1 μM PMA 60 minutes prior to TRH
  PMA-induced inhibition of the TRH response: 37±4.0%
TRH-R [1]; AdCMVmTRHR-infected COS-1 cells, 0.1 μM PMA 60 minutes prior to TRH
  PMA-induced inhibition of the TRH response: 37±8.0%
TRH-R [1]; AdCMVmTRHR-infected GHY cells, 0.1 μM PMA added 60 minutes prior to TRH
  PMA-induced inhibition of the TRH response: 25±4.6%
TRH-R [1]; AdCMVmTRHR-infected KB cells, 0.1 μM PMA 60 minutes prior to TRH
  PMA-induced inhibition of the TRH response: 0±10%

## NC(=O)[C@@H]1CCCN1C(=O)[C@H](Cc1cnc[nH]1)NC(=O)[C@@H]1CCC(=O)N1 [TRH, thyrotropin-releasing hormone]
TRH-R [1]; AdCMVmTRHR-infected AtT-20 cells, 60 minutes 1 μM TRH
  TRH-induced desensitization: decrease of rate of IP formation compared to control: 41±4.7%
TRH-R [1]; AdCMVmTRHR-infected COS-1 cells, 60 minutes 1 μM TRH
  TRH-induced desensitization: did not desensitize
TRH-R [1]; AdCMVmTRHR-infected GHY cells, after 60 minutes of stimulation by 1 μM TRH
  TRH-induced desensitization: decrease of the response to TRH: 49±5.2%
TRH-R [1]; AdCMVmTRHR-infected KB cells, 60 minutes 1 μM TRH
  TRH-induced desensitization: 0±10%

## Cn1cnc(C[C@H](NC(=O)[C@@H]2CCC(=O)N2)C(=O)N2CCC[C@H]2C(N)=O)c1 [methylTRH]
Mouse TRH-R
  Kd: 1.09 ± 0.26 nM
TRH-R [2]
  response to methylTRH (IP formation) in uninfected cells: did not respond
TRH-R [3]; AdCMVmTRHR-infected COS-1 cells (printed COA-1)
  TRH-Rs internalized after 60 minutes: 62±2.1%
TRH-R [3]; AdCMVmTRHR-infected GHY cells
  TRH-Rs internalized after 60 minutes: 64±7.0%
TRH-R [3]; AdCMVmTRHR-infected KB cells
  TRH-Rs internalized after 60 minutes: 71±2.6%
